Measurements reported in patent publication EP4563146A1 (IRBM S.P.A., priority 2023, dated 2025).

These compounds were tested on ZIKV replicon (assay: ZIKV replication inhibition assay (NanoLuc replicon in Vero cells)). Details: Zika virus, Vero, 72 h, read-out: ZIKA Cell_Nanoluc.

Row | Structure (SMILES) | EC50 [nM]
1 | COc1ncc(-c2ccc(C[n+]3cc([N-]C(=O)Nc4cc(NC(=O)CC5CCCCC5)cc(C(F)(F)F)c4)on3)cc2)c(C)n1 [Example 8] | 1000 to 20000
2 | COc1ncc(-c2ccc(C[n+]3cc([N-]C(=O)Nc4cc(NC(C)=O)cc(C(F)(F)F)c4)on3)cc2)c(C)n1 [Example 11] | 1000 to 20000
3 | COc1ncc(-c2ccc(C[n+]3cc([N-]C(=O)Nc4cc(NC(=O)C5CCCC5)cc(C(F)(F)F)c4)on3)cc2)c(C)n1 [Example 18] | 100 to 1000
4 | O=C([N-]c1c[n+](Cc2ccccn2)no1)Nc1cc(NC(=O)c2ccc(CN3CCOCC3)o2)cc(C(F)(F)F)c1 [Example 30] | 1000 to 20000
5 | O=C([N-]c1c[n+](Cc2ccccn2)no1)Nc1cc(NC(=O)c2cccc(Oc3ccccc3)c2)cc(C(F)(F)F)c1 [Example 31] | 1000 to 20000
6 | CC(C(=O)Nc1cc(NC(=O)[N-]c2c[n+](Cc3ccccn3)no2)cc(C(F)(F)F)c1)c1ccccc1 (stereo not shown) [Example 32] | 100 to 1000
7 | Cc1oc(-c2ccccc2)nc1CC(=O)Nc1cc(NC(=O)[N-]c2c[n+](Cc3ccccn3)no2)cc(C(F)(F)F)c1 [Example 33] | 1000 to 20000
8 | O=C([N-]c1c[n+](Cc2ccccn2)no1)Nc1cc(NC(=O)c2ccnn2-c2ccccc2)cc(C(F)(F)F)c1 [Example 34] | 1000 to 20000
9 | O=C([N-]c1c[n+](Cc2ccccn2)no1)Nc1cc(NC(=O)c2cnn(Cc3ccccc3)c2)cc(C(F)(F)F)c1 [Example 35] | 1000 to 20000
10 | O=C(Cc1c[nH]c2cccnc12)Nc1cc(NC(=O)[N-]c2c[n+](Cc3ccccn3)no2)cc(C(F)(F)F)c1 [Example 36] | 1000 to 20000
11 | N#Cc1ccc2nc(C(=O)Nc3cc(NC(=O)[N-]c4c[n+](Cc5ccccn5)no4)cc(C(F)(F)F)c3)cn2c1 [Example 37] | 1000 to 20000
12 | CN1Cc2cc(C(=O)Nc3cc(NC(=O)[N-]c4c[n+](Cc5ccccn5)no4)cc(C(F)(F)F)c3)sc2C1 [Example 39] | 1000 to 20000
13 | Cn1ccc(CC(=O)Nc2cc(NC(=O)[N-]c3c[n+](Cc4ccccn4)no3)cc(C(F)(F)F)c2)n1 [Example 40] | 1000 to 20000

Same assay, conditions: Zika virus, Vero, 72 h, read-out: ZIKA Cell_Nanoluc, Vero cells with stable ZIKV replicon, 72 h, Nano-Glo readout

Row | Structure (SMILES) | EC50 [nM]
14 | COc1ncc(-c2ccc(C[n+]3cc([N-]C(=O)Nc4cc(NS(=O)(=O)CC5CCCCC5)cc(C(F)(F)F)c4)on3)cc2)c(C)n1 [Example 2, ((3-((Cyclohexylmethyl)sulfonamido)-5-(trifluoromethyl)phenyl)carbamoyl)(3-(4-(2-methoxy-4-methylpyrimidin-5-yl)benzyl)-1,2,3-oxadiazol-3-ium-5-yl)amide] | > 20000
15 | COc1ncc(-c2ccc(C[n+]3cc([N-]C(=O)Nc4cc(N)cc(C(F)(F)F)c4)on3)cc2)c(C)n1 [Example 3, ((3-Amino-5-(trifluoromethyl)phenyl)carbamoyl)(3-(4-(2-methoxy-4-methylpyrimidin-5-yl)benzyl)-1,2,3-oxadiazol-3-ium-5-yl)amide] | 100 to 1000
16 | C[n+]1cc([N-]C(=O)Nc2cc(NC(=O)Cc3ccccc3)cc(C(F)(F)F)c2)on1 [Example 4, (3-Methyl-1,2,3-oxadiazol-3-ium-5-yl)((3-(2-phenylacetamido)-5-(trifluoromethyl)phenyl)carbamoyl)amide] | 1000 to 20000
17 | NCc1ccccc1-c1ccc(C[n+]2cc([N-]C(=O)Nc3cc(NC(=O)Cc4ccccc4)cc(C(F)(F)F)c3)on2)nc1 [Example 5, (3-((5-(2-(Aminomethyl)phenyl)pyridin-2-yl)methyl)-1,2,3-oxadiazol-3-ium-5-yl)((3-(2-phenylacetamido)-5-(trifluoromethyl)phenyl)carbamoyl)amide] | 1000 to 20000
18 | Cn1cncc1-c1ccc(C[n+]2cc([N-]C(=O)Nc3cc(NC(=O)Cc4ccccc4)cc(C(F)(F)F)c3)on2)nc1 [Example 6, (3-((5-(1-Methyl-1H-imidazol-5-yl)pyridin-2-yl)methyl)-1,2,3-oxadiazol-3-ium-5-yl)((3-(2-phenylacetamido)-5-(trifluoromethyl)phenyl)carbamoyl)amide] | 1000 to 20000
19 | O=C(Cc1ccccc1)Nc1cc(NC(=O)[N-]c2c[n+](Cc3ccccn3)no2)cc(C(F)(F)F)c1 [Example 7, ((3-(2-Phenylacetamido)-5-(trifluoromethyl)phenyl)carbamoyl)(3-(pyridin-2-ylmethyl)-1,2,3-oxadiazol-3-ium-5-yl)amide] | 100 to 1000
20 | COc1ncc(-c2ccc(C[n+]3cc([N-]C(=O)Nc4cc(NC(=O)CCc5ccccc5)cc(C(F)(F)F)c4)on3)cc2)c(C)n1 [Example 9, (3-(4-(2-Methoxy-4-methylpyrimidin-5-yl)benzyl)-1,2,3-oxadiazol-3-ium-5-yl)((3-(3-phenylpropanamido)-5-(trifluoromethyl)phenyl)carbamoyl)amide] | 100 to 1000
21 | COc1ncc(-c2ccc(C[n+]3cc([N-]C(=O)Nc4cc(NS(=O)(=O)Cc5ccccc5)cc(C(F)(F)F)c4)on3)cc2)c(C)n1 [Example 10, (3-(4-(2-Methoxy-4-methylpyrimidin-5-yl)benzyl)-1,2,3-oxadiazol-3-ium-5-yl)((3-((phenylmethyl)sulfonamido)-5-(trifluoromethyl)phenyl)carbamoyl)amide] | 100 to 1000
22 | O=C(Cc1ccccc1)Nc1cc(NC(=O)[N-]c2c[n+](Cc3ccc(Br)cn3)no2)cc(C(F)(F)F)c1 [Example 12, (3-((5-Bromopyridin-2-yl)methyl)-1,2,3-oxadiazol-3-ium-5-yl)((3-(2-phenylacetamido)-5-(trifluoromethyl)phenyl)carbamoyl)amide] | 100 to 1000
23 | COc1ncc(-c2ccc(C[n+]3cc([N-]C(=O)Nc4cc(NC(=O)Cc5ccccc5)cc(C(F)(F)F)c4)on3)nc2)c(C)n1 [Example 13, (3-((5-(2-Methoxy-4-methylpyrimidin-5-yl)pyridin-2-yl)methyl)-1,2,3-oxadiazol-3-ium-5-yl)((3-(2-phenylacetamido)-5-(trifluoromethyl)phenyl)carbamoyl)amide] | 100 to 1000
24 | O=C(Cc1ccccc1)Nc1cc(NC(=O)[N-]c2c[n+](Cc3ccc(-c4cccc5c4CNC5)cn3)no2)cc(C(F)(F)F)c1 [Example 14, (3-((5-(Isoindolin-4-yl)pyridin-2-yl)methyl)-1,2,3-oxadiazol-3-ium-5-yl)((3-(2-phenylacetamido)-5-(trifluoromethyl)phenyl)carbamoyl)amide] | 1000 to 20000
25 | COc1ccc(CC(=O)Nc2cc(NC(=O)[N-]c3c[n+](Cc4ccc(-c5cnc(OC)nc5C)cc4)no3)cc(C(F)(F)F)c2)cc1 [Example 16, (3-(4-(2-Methoxy-4-methylpyrimidin-5-yl)benzyl)-1,2,3-oxadiazol-3-ium-5-yl)((3-(2-(4-methoxyphenyl)acetamido)-5-(trifluoromethyl)phenyl)carbamoyl)amide] | 1000 to 20000
26 | COc1ncc(-c2ccc(C[n+]3cc([N-]C(=O)Nc4cc(NC(=O)Cc5cccnc5)cc(C(F)(F)F)c4)on3)cc2)c(C)n1 [Example 19, (3-(4-(2-Methoxy-4-methylpyrimidin-5-yl)benzyl)-1,2,3-oxadiazol-3-ium-5-yl)((3-(2-(pyridin-3-yl)acetamido)-5-(trifluoromethyl)phenyl)carbamoyl)amide] | 1000 to 20000
27 | COc1ncc(-c2ccc(C[n+]3cc([N-]C(=O)Nc4cc(NC(=O)Cc5ccccc5Cl)cc(C(F)(F)F)c4)on3)cc2)c(C)n1 [Example 21, ((3-(2-(2-Chlorophenyl)acetamido)-5-(trifluoromethyl)phenyl)carbamoyl)(3-(4-(2-methoxy-4-methylpyrimidin-5-yl)benzyl)-1,2,3-oxadiazol-3-ium-5-yl)amide] | 100 to 1000
28 | Cc1noc(C)c1-c1ccc([C@H](CN)[n+]2cc([N-]C(=O)Nc3cc(NC(=O)Cc4ccccc4)cc(C(F)(F)F)c3)on2)cc1 [Example 23, (R)-(3-(2-Amino-1-(4-(3,5-dimethylisoxazol-4-yl)phenyl)ethyl)-1,2,3-oxadiazol-3-ium-5-yl)((3-(2-phenylacetamido)-5-(trifluoromethyl)phenyl)-carbamoyl)amide] | 1000 to 20000
29 | Cc1noc(C)c1-c1ccc([C@@H](CN)[n+]2cc([N-]C(=O)Nc3cc(NC(=O)Cc4ccccc4)cc(C(F)(F)F)c3)on2)cc1 [Example 24, (S)-(3-(2-Amino-1-(4-(3,5-dimethylisoxazol-4-yl)phenyl)ethyl)-1,2,3-oxadiazol-3-ium-5-yl)((3-(2-phenylacetamido)-5-(trifluoromethyl)phenyl)carbamoyl)amide] | 1000 to 20000
30 | Cc1nc(N)ncc1-c1ccc(C[n+]2cc([N-]C(=O)Nc3cc(NC(=O)Cc4ccccc4)cc(C(F)(F)F)c3)on2)nc1 [Example 25, (3-((5-(2-Amino-4-methylpyrimidin-5-yl)pyridin-2-yl)methyl)-1,2,3-oxadiazol-3-ium-5-yl)((3-(2-phenylacetamido)-5-(trifluoromethyl)phenyl)carbamoyl)amide] | 1000 to 20000
31 | NCc1ccc(CC(=O)Nc2cc(NC(=O)[N-]c3c[n+](Cc4ccccn4)no3)cc(C(F)(F)F)c2)cc1 [Example 27, ((3-(2-(4-(Aminomethyl)phenyl)acetamido)-5-(trifluoromethyl)phenyl)carbamoyl)(3-(pyridin-2-ylmethyl)-1,2,3-oxadiazol-3-ium-5-yl)amide] | 1000 to 20000
32 | O=C(Cc1ccccc1)Nc1cc(NC(=O)[N-]c2c[n+](Cc3ccccc3)no2)cc(C(F)(F)F)c1 [Example 28, (3-Benzyl-1,2,3-oxadiazol-3-ium-5-yl)((3-(2-phenylacetamido)-5-(trifluoro-methyl)phenyl)carbamoyl)amide] | 1000 to 20000
33 | O=C([N-]c1c[n+](Cc2ccccn2)no1)Nc1cc(NC(=O)c2ccc3[nH]cnc3c2)cc(C(F)(F)F)c1 [Example 29, ((3-(1H Benzo[d]imidazole-5-carboxamido)-5-(trifluoromethyl)phenyl)-carbamoyl)(3-(pyridin-2-ylmethyl)-1,2,3-oxadiazol-3-ium-5-yl)amide] | 1000 to 20000
34 | O=C([N-]c1c[n+](Cc2ccccn2)no1)Nc1cc(NC(=O)C2CCCc3cn[nH]c32)cc(C(F)(F)F)c1 (stereo not shown) [Example 38, (3-(Pyridin-2-ylmethyl)-1,2,3-oxadiazol-3-ium-5-yl)((3-(4,5,6,7-tetrahydro-1H-indazole-7-carboxamido)-5-(trifluoromethyl)phenyl)carbamoyl)amide] | 1000 to 20000
